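How tested: cells in 96-well plates exposed to compound for 48 hours at five concentrations. GI50 marks 50% less growth.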 Activity calls are given as the source filed them. Cut-off read from the data, not from the text of the source: active = GI50 up to about 1.1 µM and inactive = higher.
Tests used:
Test in all cases: growth of human tumour cells (NCI), 48 h
[1] = tested on: K562
[2] = tested on: HOP-62
[3] = tested on: KM12
[4] = tested on: HCT-15
[5] = tested on: Malme-3M
[6] = tested on: M14
[7] = tested on: SNB-19
[8] = tested on: SN12C
[9] = tested on: Hs-578T
[10] = tested on: SK-MEL-28
[11] = tested on: OVCAR-4
[12] = tested on: DU-145
[13] = tested on: A549
[14] = tested on: HL-60
[15] = tested on: IGROV-1
[16] = tested on: UACC-62
[17] = tested on: OVCAR-5
[18] = tested on: PC-3
[19] = tested on: MOLT-4
[20] = tested on: SK-MEL-2
[21] = tested on: SK-MEL-5
[22] = tested on: CAKI-1
[23] = tested on: HCT-116
[24] = tested on: OVCAR-8
[25] = tested on: SK-OV-3
[26] = tested on: 786-0
[27] = tested on: MDA-MB-435
[28] = tested on: HOP-92
[29] = tested on: COLO 205
[30] = tested on: NCI-H23
[31] = tested on: MDA-MB-231
[32] = tested on: TK-10
[33] = tested on: T47D
[34] = tested on: SNB-75
[35] = tested on: ACHN
[36] = tested on: MCF7
[37] = tested on: HT-29
[38] = tested on: NCI-H522
[39] = tested on: NCI-H226
[40] = tested on: UO-31
[41] = tested on: SW-620
[42] = tested on: RPMI-8226
[43] = tested on: EKVX
[44] = tested on: MDA-N
[45] = tested on: A498
[46] = tested on: SF-539
[47] = tested on: BT-549
[48] = tested on: SF-295
[49] = tested on: SF-268
[50] = tested on: CCRF-CEM
[51] = tested on: U-251
[52] = tested on: RXF 393
[53] = tested on: UACC-257
[54] = tested on: NCI/ADR-RES
[55] = tested on: OVCAR-3
[56] = tested on: SR
[57] = tested on: NCI-H460
[58] = tested on: LOX IMVI

Q: With O=C(O)c1nnsc1-c1ccc(-c2snnc2C(=O)O)cc1 as the compound, how does the GI50 [1] read?
A: 28.5 µM (inactive)

Q: And the GI50 [2]?
A: > 100 µM (inactive)

Q: What about the GI50 [3] of the same compound?
A: > 100 µM (inactive)

Q: What about the GI50 [4] of the same compound?
A: 42 µM

Q: What about the GI50 [5] of the same compound?
A: 56.8 µM (inactive)

Q: And the GI50 [6]?
A: > 100 µM (inactive)

Q: What about the GI50 [7] of the same compound?
A: > 100 µM (inactive)

Q: And the GI50 [8]?
A: > 100 µM (inactive)

Q: And the GI50 [9]?
A: > 100 µM (inactive)

Q: What about the GI50 [10] of the same compound?
A: > 100 µM (inactive)

Q: And the GI50 [11]?
A: 29.6 µM (inactive)

Q: What about the GI50 [12] of the same compound?
A: > 100 µM (inactive)

Q: What about the GI50 [13] of the same compound?
A: > 100 µM (inactive)

Q: And the GI50 [14]?
A: 37.7 µM (inactive)

Q: What about the GI50 [15] of the same compound?
A: > 100 µM (inactive)

Q: And the GI50 [16]?
A: > 100 µM (inactive)

Q: What about the GI50 [17] of the same compound?
A: > 100 µM (inactive)

Q: What about the GI50 [18] of the same compound?
A: 85.9 µM (inactive)

Q: What about the GI50 [19] of the same compound?
A: 17.4 µM (inactive)

Q: What about the GI50 [20] of the same compound?
A: > 100 µM (inactive)

Q: What about the GI50 [21] of the same compound?
A: > 100 µM (inactive)

Q: And the GI50 [22]?
A: 58.7 µM (inactive)

Q: What about the GI50 [23] of the same compound?
A: > 100 µM (inactive)

Q: What about the GI50 [24] of the same compound?
A: > 100 µM (inactive)

Q: And the GI50 [25]?
A: > 100 µM (inactive)

Q: What about the GI50 [26] of the same compound?
A: 43.2 µM (inactive)

Q: What about the GI50 [27] of the same compound?
A: 48.2 µM (inactive)

Q: What about the GI50 [28] of the same compound?
A: 68.4 µM (inactive)

Q: And the GI50 [29]?
A: > 100 µM (inactive)

Q: What about the GI50 [30] of the same compound?
A: > 100 µM (inactive)

Q: What about the GI50 [31] of the same compound?
A: > 100 µM (inactive)

Q: And the GI50 [32]?
A: > 100 µM (inactive)

Q: What about the GI50 [33] of the same compound?
A: > 100 µM (inactive)

Q: What about the GI50 [34] of the same compound?
A: > 100 µM (inactive)

Q: What about the GI50 [35] of the same compound?
A: > 100 µM (inactive)

Q: What about the GI50 [36] of the same compound?
A: 27.7 µM (inactive)

Q: What about the GI50 [37] of the same compound?
A: > 100 µM (inactive)

Q: And the GI50 [38]?
A: 56.6 µM (inactive)

Q: What about the GI50 [39] of the same compound?
A: > 100 µM (inactive)

Q: And the GI50 [40]?
A: > 100 µM (inactive)

Q: What about the GI50 [41] of the same compound?
A: 39.5 µM (inactive)

Q: What about the GI50 [42] of the same compound?
A: 29.4 µM (inactive)

Q: And the GI50 [43]?
A: 91.6 µM (inactive)

Q: And the GI50 [44]?
A: > 100 µM (inactive)

Q: What about the GI50 [45] of the same compound?
A: > 100 µM (inactive)

Q: What about the GI50 [46] of the same compound?
A: 33.7 µM (inactive)

Q: And the GI50 [47]?
A: > 100 µM (inactive)

Q: What about the GI50 [48] of the same compound?
A: > 100 µM (inactive)

Q: What about the GI50 [49] of the same compound?
A: > 100 µM (inactive)

Q: And the GI50 [50]?
A: 2.94 µM (inactive)

Q: What about the GI50 [51] of the same compound?
A: > 100 µM (inactive)

Q: What about the GI50 [52] of the same compound?
A: > 100 µM (inactive)

Q: What about the GI50 [53] of the same compound?
A: > 100 µM (inactive)

Q: And the GI50 [54]?
A: > 100 µM (inactive)

Q: And the GI50 [55]?
A: 91.2 µM (inactive)

Q: What about the GI50 [56] of the same compound?
A: 10.5 µM (inactive)

Q: And the GI50 [57]?
A: 32.1 µM (inactive)

Q: What about the GI50 [58] of the same compound?
A: 31.8 µM (inactive)

Q: What does the source list for CCCCCCCCCCCCCCCCOC[C@H](COC(c1ccccc1)(c1ccccc1)c1ccccc1)O[PH](=S)OC (some centres not stated)?
A: GI50 [1]: > 100 µM (inactive); GI50 [3]: > 100 µM (inactive); GI50 [4]: > 100 µM; GI50 [6]: > 100 µM (inactive); GI50 [7]: > 100 µM (inactive); GI50 [8]: > 100 µM (inactive); GI50 [9]: > 100 µM (inactive); GI50 [12]: > 100 µM (inactive); GI50 [13]: > 100 µM (inactive); GI50 [14]: > 100 µM (inactive); GI50 [15]: > 100 µM (inactive); GI50 [16]: > 100 µM (inactive); GI50 [17]: > 100 µM (inactive); GI50 [18]: > 100 µM (inactive); GI50 [19]: > 100 µM (inactive); GI50 [20]: > 100 µM (inactive); GI50 [21]: > 100 µM (inactive); GI50 [22]: > 100 µM (inactive); GI50 [23]: > 100 µM (inactive); GI50 [24]: > 100 µM (inactive); GI50 [25]: > 100 µM (inactive); GI50 [26]: > 100 µM (inactive); GI50 [27]: > 100 µM (inactive); GI50 [28]: > 100 µM (inactive); GI50 [29]: > 100 µM (inactive); GI50 [30]: > 100 µM (inactive); GI50 [31]: > 100 µM (inactive); GI50 [32]: > 100 µM (inactive); GI50 [33]: > 100 µM (inactive); GI50 [34]: > 100 µM (inactive); GI50 [35]: > 100 µM (inactive); GI50 [36]: > 100 µM (inactive); GI50 [37]: > 100 µM (inactive); GI50 [38]: > 100 µM (inactive); GI50 [39]: > 100 µM (inactive); GI50 [40]: > 100 µM (inactive); GI50 [41]: > 100 µM (inactive); GI50 [42]: > 100 µM (inactive); GI50 [43]: > 100 µM (inactive); GI50 [44]: > 100 µM (inactive); GI50 [45]: > 100 µM (inactive); GI50 [46]: > 100 µM (inactive); GI50 [47]: > 100 µM (inactive); GI50 [48]: > 100 µM (inactive); GI50 [49]: > 100 µM (inactive); GI50 [50]: > 100 µM (inactive); GI50 [51]: > 100 µM (inactive); GI50 [52]: > 100 µM (inactive); GI50 [53]: > 100 µM (inactive); GI50 [54]: > 100 µM (inactive); GI50 [55]: > 100 µM (inactive); GI50 [56]: > 100 µM (inactive); GI50 [57]: > 100 µM (inactive); GI50 [58]: > 100 µM (inactive)

Source: ChEMBL document CHEMBL1201862, “PubChem BioAssay data set” (2004)
